In US20250302961A1, “TARGETING MYELOID-DERIVED SUPPRESSOR CELLS (MDSCS) IN BLADDER CANCER TO ENHANCE EFFICACY OF ADOPTIVE CELL THERAPY (ACT)” (H. LEE MOFFITT CANCER CENTER AND RESEARCH INSTITUTE, INC., priority 2022, published 2025):

Test system: MB49-OVA bladder tumors
Assay: Gemcitabine pretreatment and ACT with OT-I T-cells in orthotopic MB49-OVA bladder cancer model, tumor growth by ultrasound
Format: in vivo, C57BL/6 mice
Conditions: intravesical 500 ug gemcitabine for 30 minutes, then 5×10^6 OT-I T-cells at day 4 (GEM+OT-I)
Description: For murine studies, orthotopic MB49-OVA bladder tumors were collected, stained for MDSCs, and analyzed by flow cytometry. Urine samples from bladder cancer patients were also collected and stained for MDSCs. From mice, purified MDSCs and OT-I T-cells were cocultured and from bladder cancer patients, purified urine MDSCs and CD3-stimulated peripheral blood T-cells were cocultured to assess suppression of T-cell proliferation or IFN-gamma secretion. Mice bearing MB49-OVA tumors were treated with intravesical instillation of gemcitabine and/or OT-I T-cells and tumor growth was monitored via ultrasound. C57BL/6 female mice were initially anesthetized and catheterized (Terumo), then pre-treated orthotopically with Poly-L-Lysine in PBS (50 uL at 1μg/mL) for 10 minutes. Then bladders were washed with 50 uL PBS and mice received intravesical instillation of 1×10^5 MB49-OVA murine bladder cancer cells for 30 minutes. Presence of bladder tumors were confirmed via the Vevo 2100 ultrasound system (FUJIFILM VisualSonics Inc.) 10 days after tumor inoculation and ultrasound was performed 1X per week until mice were euthanized. To evaluate whether targeting MDSCs with gemcitabine (GEM) improves transfer of T cells, C57BL/6 mice received intravesical instillation of MB49-OVA tumor cells and were monitored via ultrasound. Seven-ten days after intravesical instillation of tumor, mice were separated into three treatment groups and an untreated (UNTX) group. The gemcitabine group (GEM) and the combination gemcitabine and OT-I treatment group (GEM+OT-I) received intravesical instillation of 500 ug gemcitabine for 30 minutes. The OT-I treatment group (OT-I) and GEM+OT-I treatment groups received intravesical instillation of 5×10^6 OT-I T-cells for 3 hours at day 4 after instillation of Gem. Tumor growth was measured via ultrasound.

Nc1ccn([C@@H]2O[C@H](CO)[C@@H](O)C2(F)F)c(=O)n1 [gemcitabine]
anti-tumor response (tumor growth via ultrasound) (mice bearing large MB49-OVA tumors (>50 mm3)): improved anti-tumor response
anti-tumor response (tumor growth via ultrasound) (mice bearing large MB49-OVA tumors (>50 mm3), listed as Gemcitabine): improves adoptive cell therapy (ACT)
anti-tumor response (tumor growth via ultrasound) (mice bearing smaller MB49-OVA tumors (<50 mm3)): little added benefit to ACT
